Several values for one entry are separate records, joined by “and”; a condition that tells them apart may be missing. Equal values may be shown once.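 A five-concentration, 48-hour dose response in 96-well plates underlies each endpoint, interpolated linearly between surrounding concentrations. Here, GI50 denotes the concentration required for 50% inhibition of growth. TGI: total growth inhibition.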
What was measured:
Test in all cases: NCI anticancer screen, dose series, 48 h
786-0 renal = test system: 786-0 renal
CCRF-CEM leukemia = test system: CCRF-CEM leukemia
HCT-116 colon = test system: HCT-116 colon
HT29 colon = test system: HT29 colon
KM12 colon = test system: KM12 colon
MDA-MB-231 breast = test system: MDA-MB-231 breast
NCI-H226 lung = test system: NCI-H226 lung
NCI-H522 lung = test system: NCI-H522 lung
OVCAR-3 ovarian = test system: OVCAR-3 ovarian
SF-268 CNS = test system: SF-268 CNS

| Structure (SMILES) | GI50 (786-0 renal) | TGI (786-0 renal) [µM] | GI50 (CCRF-CEM leukemia) [µM] | TGI (CCRF-CEM leukemia) [µM] | GI50 (HCT-116 colon) | TGI (HCT-116 colon) [µM] | GI50 (HT29 colon) | TGI (HT29 colon) [µM] | GI50 (KM12 colon) | TGI (KM12 colon) | GI50 (MDA-MB-231 breast) | TGI (MDA-MB-231 breast) | GI50 (NCI-H226 lung) | TGI (NCI-H226 lung) | GI50 (NCI-H522 lung) [µM] | TGI (NCI-H522 lung) [µM] | GI50 (OVCAR-3 ovarian) | TGI (OVCAR-3 ovarian) | GI50 (SF-268 CNS) | TGI (SF-268 CNS) |
| --- | --- | --- | --- | --- | --- | --- | --- | --- | --- | --- | --- | --- | --- | --- | --- | --- | --- | --- | --- | --- |
| COc1cnccc1Nc1nc(-c2nn(Cc3c(F)cc(OCCO)cc3F)c3ccccc23)ncc1OC | 1.76 µM | 5.44 | 0.946 | > 100 | 3.64 µM | 20.2 | 2.87 µM | 16.4 | 3.88 µM | 63.6 µM | 1.53 µM | 4.96 µM | 12.4 µM | 31.9 µM | 1.82 | 8.55 | 3.05 µM | 8.51 µM | 3.85 µM | 15.9 µM |
| COc1ccc(-c2[nH]ncc2Nc2cc(OC)c(OC)c(OC)c2)cc1 | 6.2 µM | > 65.4 | 1.5 | 19.4 | 1.04 µM | > 43.2 | 0.482 µM | > 100 | 0.63 µM | 22.7 µM | 3.34 µM | > 100 µM | 29.1 µM | > 100 µM | 1.98 | 49.3 | 0.962 µM | 3.69 µM | 6.83 µM | > 100 µM |
| CCS(=O)(=O)c1ccc(OC)c(Nc2ncc(-c3cccc(F)c3)o2)c1 | > 25 µM | > 25 | > 25 | > 25 | > 25 µM | > 25 | > 25 µM | > 25 | 0.649 µM | > 25 µM | > 25 µM | > 25 µM | 0.513 µM | > 25 µM | > 25 | > 25 | > 25 µM | > 25 µM | > 25 µM | > 25 µM |
| CCc1c(C)c2cc(-n3c(-c4ccc(OC)cc4)csc3=N)c(O)c(C)c2oc1=O | 1.7 µM | 4.72 | 1.54 | > 100 | 1.23 µM | 2.99 | 1.74 µM | 6.12 | 1.32 µM | 8.37 µM | 1.52 µM | 6.39 µM | 2.13 µM | 9.73 µM | 0.646 | 2.46 | 1.19 µM | 3.08 µM | 2.1 µM | 10.3 µM |
| COc1ccc2c(c1)nnc1c3cccnc3[nH]c21 | 0.509 µM and 2.23 µM |  | 0.0372 | > 100 | 0.209 µM and 0.146 µM |  | 0.751 µM and 0.541 µM |  | 1.22 µM and 1.92 µM | 5.89 µM and 13.4 µM | 1.42 µM and 1.56 µM | 11.4 µM and 6.1 µM | 2.62 µM and 7.87 µM | 11.1 µM and 65.3 µM | 1.09 | 3 | 0.964 µM and 1.17 µM | 2.43 µM and 4.09 µM | 0.733 µM and 0.365 µM | 4.7 µM and 5.65 µM |
| CSc1nc(SC)c2c(C)cn(COCCOC(=O)c3ccccc3)c2n1 |  | > 100 |  | > 100 |  | > 100 |  | > 100 |  | > 100 µM |  | > 100 µM |  | > 100 µM |  | > 100 |  | > 100 µM |  | > 100 µM |
| N=C(CC(=O)Nc1ccccn1)c1ccccc1 |  | > 100 |  | > 100 |  | > 100 |  | > 100 |  | > 100 µM |  | > 100 µM |  | > 100 µM |  | > 100 |  | > 100 µM |  | > 100 µM |
| O=C1NC(=NCCc2ccc(Br)cc2)S/C1=C\c1ccc2ncccc2c1 | > 25 µM | > 25 | 21.1 | > 25 | 16.7 µM | > 25 | > 25 µM | > 25 | 24.6 µM | > 25 µM | > 25 µM | > 25 µM | > 25 µM | > 25 µM | 12.9 | > 25 | > 25 µM | > 25 µM | 15.9 µM | > 25 µM |
| NS(=O)(=O)c1ccc(N=Nc2c[nH]c(=O)c(O)c2)cc1 |  | > 100 |  | 44.1 |  | > 100 |  | > 100 |  | > 100 µM |  | > 100 µM |  | > 100 µM |  | 28.6 |  | 82.6 µM |  | > 100 µM |
| CN(CCCCCl)P(=O)(OCc1ccc([N+](=O)[O-])o1)OCC1OC(n2cc([N+](=O)[O-])c(=O)[nH]c2=O)CC1O (configuration not stated) | 12.7 µM | > 100 | 66.8 | > 100 | 66.5 µM | > 100 | > 100 µM | > 100 | > 100 µM | > 100 µM | > 100 µM | > 100 µM | 42.3 µM | > 100 µM | > 100 | > 100 | 43.6 µM | > 100 µM | 3 µM | > 100 µM |
| COc1ccc2c(c1)C(=O)c1c-2n(CCCN(C)C)c(=O)c2cc([N+](=O)[O-])ccc12 | < 0.01 µM | < 0.01 | < 0.01 | < 0.01 | < 0.01 µM | 0.21 | < 0.01 µM | 0.61 | 0.025 µM | 0.556 µM | 1.08 µM | 2.83 µM | < 0.0227 µM | 1.53 µM | < 0.01 | 0.898 | 0.0191 µM | 0.748 µM | < 0.01 µM | 2.29 µM |
| O=C(CI)Nc1ccc(Br)cc1 | 2.23 µM | 4.62 | 1.75 | > 100 | 1.88 µM | 3.45 | 2.43 µM | 5.28 | 2.9 µM | 10.7 µM | 2.6 µM | 5.51 µM | 3.78 µM | 19.2 µM | 1.53 | 3.47 | 1.72 µM | 3.25 µM | 1.8 µM | 3.65 µM |
| CCC(=O)Nc1nnc(Cc2ccc(OC)c(OC)c2)s1 | > 100 µM | > 100 | > 100 | > 100 | > 100 µM | > 100 | > 100 µM | > 100 | > 100 µM | > 100 µM | > 100 µM | > 100 µM | > 100 µM | > 100 µM | > 100 | > 100 | > 100 µM | > 100 µM | > 100 µM | > 100 µM |
| O=C1Cc2cc(CCN3CCNCC3)c(Cl)cc2N1 | > 100 µM | > 100 | 2.98 | > 100 | 10 µM | > 100 | > 100 µM | > 100 | 3.96 µM | > 100 µM | 3.9 µM | > 100 µM | > 100 µM | > 100 µM | 4.86 | > 100 | 14.1 µM | > 100 µM | 12.7 µM | > 100 µM |
